Entries after “also recorded” stand apart in the source; their conditions may differ.
Experiments:
[1] = tested on: patients with advanced solid tumors or lymphomas; assay: Phase I study, one or two hour intravenous infusion daily for five consecutive days on a three week cycle: adverse events, DLT, MTD; type: in vivo
Description: Dosing is by one or two hour intravenous infusion daily for five consecutive days repeated on a three week cycle. […] Response by RECIST is determined after every 2 cycles.

[2] = tested on: advanced solid tumors or lymphomas; assay: Phase I study, one or two hour infusion: response by RECIST, disease stabilization; type: in vivo, human
Description: (§1) Eligible patients with advanced solid tumors or lymphomas whose tumors had progressed on, or for whom there are no standard therapies, receive Compound A in successive dose cohorts at: 10, 20, 40, 80 and 160 mg/m^2. Dosing is by one or two hour intravenous infusion daily for five consecutive days repeated on a three week cycle. […] Response by RECIST is determined after every 2 cycles.

[3] = Phase I study, one or two hour infusion: plasma pharmacokinetics; type: in vivo, human
Description: The objectives of the study described hereafter are to determine the maximum tolerated dose (MTD) and dose limiting toxicities (DLTs), to establish the pharmacokinetics (PKs), and to determine the recommended dose for further clinical development of Compound A.
as §1

[4] = tested on: patients with advanced solid tumors; assay: Phase I study, daily intravenous infusion (one to six hours) on first five days of a three week cycle: adverse events, DLT, MTD; type: in vivo
Excerpt: Compound A is designed to inhibit over-expressed ribosomal RNA synthesis in cancer cells by disrupting an essential protein-rDNA quadruplex complex thereby inducing selective apoptosis. A Phase I clinical trial for Compound A has been undertaken to determine the dose limiting toxicities (DLTs), maximum tolerated dose (MTD) and pharmacokinetics (PK) of this agent with administration by infusion for about six hours per day.
(§2) Eligible patients with advanced solid tumors received Compound A in successive dose cohorts at: 10, 20, 40, 80, 160, 240, 360 and 480 mg/m^2. Drug is administered by daily intravenous infusion on the first five consecutive days of a three week cycle and the infusion duration has varied from one hour to six hours. Response by RECIST is determined after every 2 cycles.

[5] = tested on: advanced solid tumors; assay: Phase I study, infusion up to six hours: response by RECIST, disease stabilization; type: in vivo, human
Description: as §2

[6] = Phase I study: pharmacokinetics in plasma, whole blood and urine of patients; type: in vivo, human
Excerpt: Analysis has determined that Compound A whole blood concentration is nearly ten times that of plasma concentration. The reversible binding and subsequent slow release of Compound A from blood cells provides a “reservoir” effect to extend the Compound A plasma terminal half life. Further details of these observations are described in an Example that follows. This pharmacokinetic property allows consideration of a less frequent dosing schedule, and a phase I study of weekly intravenous Compound A administration is being implemented.
Pharmacokinetic analyses of plasma samples collected on Day 1 and Day 5 of dosing for every patient were performed in cohort batches during the conduct of the phase I study of Compound A in refractory solid tumors and lymphomas (Protocol C3-05-001). […] Saturation of elimination was an unlikely cause of the extended half life because there was no apparent accumulation of drug in plasma.
The pharmacokinetic sampling procedure in the phase I clinical trial was amended to allow for whole blood and plasma to be collected from study patients. When these samples were analyzed, the binding of Compound A to blood cells was again evident.

[7] = tested on: human blood cells; assay: Human whole blood spiked with Compound A in vitro: binding to blood cells; type: in vitro ADME
Description: (§3) To test if this binding also occurs with human blood cells, an in vitro experiment was conducted with human whole blood spiked with Compound A concentrations of 1, 5, 10, and 50 μM. […] Results of the analysis of whole blood and plasma are illustrated in FIG. 7. The permanence of the binding was studied by attempting to “wash off” bound drug with fresh plasma. […] This reversible binding to blood cells is the reason for the observed extended plasma terminal half life. The ability of fresh plasma to wash off Compound A from blood cells after one, two and four washes is illustrated in FIGS. 8, 9, and 10, respectively.

[8] = tested on: human blood cells; assay: Wash off of bound drug from blood cells with fresh plasma; type: in vitro ADME; conditions: one, two and four washes
Description: as §3

[9] = tested on: xenograft tumor; assay: Xenograft tumor growth models (preclinical); type: in vivo
[10] = tested on: malignant cells; assay: Apoptosis in malignant cells in vitro; type: cell-based
[11] = Drug resistance in vitro; type: cell-based
[12] = tested on: protein-rDNA quadruplex interaction; assay: Inhibition of rRNA biogenesis in cancer cells; type: cell-based

SMILES: CN1CCCC1CCNC(=O)c1cn2c3c(c(N4CCC(c5cnccn5)C4)c(F)cc3c1=O)Oc1cc3ccccc3cc1-2 (stereo not drawn) [Compound A]
- tolerability of doses ([1]; 10, 20, 40, 80 and 160 mg/m^2, one or two hour iv infusion daily x5, three week cycle, 21 patients): well tolerated
- drug-related serious adverse events ([1]; 10-160 mg/m^2): No drug-related serious adverse events
- grade 3 adverse events deemed related to Compound A ([1]; 10-160 mg/m^2, 21 patients): none
- grade 3 adverse events reported during the study ([1]; 10-160 mg/m^2, 21 patients): nine
- severity of adverse events deemed at least possibly related to drug ([1]; all studied dose levels 10-160 mg/m^2): grade 1 or 2
- maximum tolerated dose (MTD) ([1]; highest dose 160 mg/m^2, one or two hour infusion): not yet been defined
- cough during infusion ([1]; one-hour infusion, 160 mg/m^2, resolved spontaneously upon completion of infusion): transient grade 1 cough
- cough after extending the infusion duration ([1]; two hour infusion, 160 mg/m^2): the cough resolved
- dose limiting toxicities ([1]; up to 160 mg/m^2): no observations to date of dose limiting toxicities
- longest period of stable disease to date ([2]; 10-160 mg/m^2): 24 weeks
- patients with disease stabilization of longer than / at least four months ([2]; 10-160 mg/m^2, 21 patients): three
- patients with stable disease (SD) at evaluation following two cycles ([2]; 10-160 mg/m^2, 21 patients): Six
- objective tumor responses ([2]; 10-160 mg/m^2, 21 patients, RECIST after every 2 cycles): No objective tumor responses
- median duration of disease stabilization ([2]; six patients with stable disease): 14 weeks
- linearity of PK parameters (AUC) with dose level ([3]; day 1 of dosing, dose cohorts 10-160 mg/m^2): linearity; also recorded: linear pharmacokinetic behavior
- half-life ([3]; human, plasma, intravenous, following the first dose (day 1), across all dose levels 10-160 mg/m^2, read-out: plasma terminal half life (converted)): ~600 min
- maximum plasma concentration (Cmax), effect of extending infusion ([3]; infusion extended to 2 hours at 160 mg/m^2): decreased
- MTD ([4]; daily iv infusion x5 days, three week cycle, infusion up to six hours): 360 mg/m^2
- tolerability ([4]; in vivo): well tolerated
- duration of stable disease ([5]; 10 mg/m^2, one patient with prostate cancer): six
- duration of stable disease ([5]; 160 mg/m^2 (internal dose escalation from 80 mg/m2), one patient with anorectal cancer): twelve
- duration of stable disease ([5]; 160 mg/m^2, one patient with liposarcoma): six
- cycles completed, patient remains on-study ([5]; 240 mg/m^2 (internal dose escalation from 40 mg/m^2), one patient with neuroendocrine islet cell cancer of the pancreas): 26 cycles
- patients with stable disease for longer than four months ([5]; 42 patients, 10-480 mg/m^2): Four
- patients with disease stabilization for longer than one year ([5]; 42 patients, continuing on study): one
- urinary clearance rate ([6]; calculated from a 12-hour quantitative urine collection): 10 % of the glomerular filtration rate
- plasma terminal half life, trend ([6]; patients, Day 5 vs Day 1 and dose escalation): increase with repeated dosing and with each dose level escalation
- saturability of blood cell binding ([6]; patients, comparing Day 1 and Day 5): did not appear to be saturable
- whole blood concentration relative to plasma concentration ([6]; patients, on Day 1 and on Day 5): approximately ten
- accumulation in plasma concentration ([6]; patients, repeated dosing): without significant accumulation
- binding to blood cells ([6]; patients, whole blood and plasma specimens): bind reversibly to blood cells
- route of elimination ([6]; urine): eliminated unchanged in urine
- saturability of binding to human blood cells ([7]; even at 50 μM): not saturable
- binding to human blood cells ([7]; human whole blood spiked with 1, 5, 10, and 50 μM): concentration dependent binding
- permanence of binding to blood cells [8]: easily reversible
- suppression of xenograft tumor growth [9]: potency in suppressing xenograft tumor growth with a broad therapeutic window
- induction of apoptosis [10]: rapidly induces selective apoptosis
- drug resistance [11]: no drug resistance has been observed
- effect on rRNA biogenesis [12]: directly inhibits aberrant rRNA biogenesis

From patent US20070293485A1, “DRUG ADMINISTRATION METHODS” (priority 2006, published 2007)
